Assay results as given in patent US20260248787A9, “MEDICAMENT FOR TREATING CANCER COMPRISING OPTICALLY ACTIVE AZABICYCLO RING DERIVATIVE” (Sumitomo Pharma Co., Ltd., priority 2023, published 2026).

Assays:
[1] = system: HOXA9, MEIS1, PBX3, CD11b gene expression; test: Phase 1/2 clinical study, pharmacodynamic gene expression biomarkers in bone marrow aspirate; type: in vivo, human
Source text: All dose levels and time points are combined.
(2) FIGS. 6A and 6B show average of the maximum percentage change of gene expression of leukemic (HOXA9, MEIS1, PBX3) and differentiation (CD11b) biomarkers in bone marrow aspirate of patients from all dose levels, for whom a baseline and post-baseline sample were collected.

[2] = system: acute leukemia with MLLr or NPM1m; test: Phase 1/2 clinical study, clinical activity (responses by ELN 2017); type: in vivo, human
[3] = patients with MLLr or NPM1m AML, all dose levels and time points (FIG. 5)
[4] = patients with target mutations, all dose levels (FIGS. 6A, 6B)
[5] = patients, notable with MLLr or NPM1m (Example 3)
[6] = MLLr + NPM1m, ≥140 mg BID, n=21

`C=C1C[C@@H]2CC[C@H]1[C@@H](C(=O)N1CCC3(CC1)CN(c1ncncc1Oc1ccc(F)cc1C(=O)N(C(C)C)C(C)C)C3)N2` [the present compound, 5-fluoro-2-[(4-{7-[(1S,3S,4R)-5-methylidene-2-azabicyclo[2.2.2]octane-3-carbonyl]-2,7-diazaspiro[3.5]nonan-2-yl}pyrimidin-5-yl)oxy]-N,N-di(propan-2-yl)benzamide] was tested, and the “gene expression of CD11b in bone marrow aspirate” value [1, 3] was “increases”, the “gene expression of HOXA9, PBX3 and MEIS1 in bone marrow aspirate” value [1, 3] was “Clear decreases” and the “gene expression of CD11b in bone marrow aspirate” value [1, 4] was “increases”. The “gene expression of HOXA9, PBX3 and MEIS1 in bone marrow aspirate” value [1, 4] was “Clear decreases”, the “change in CD11b” value [1, 5] was “increases” and the “change in HOXA9, PBX3 and MEIS1” value [1, 5] was “decreases”. For the same molecule, the “responders per ELN 2017” value ([2]; 43 enrolled, MLLr or NPM1m, 19 evaluable) was 5 responders, the “objective response rate (ORR) by ELN 2017 (CR+CRi+MLFS)” value ([2]; MLLr (20 AML, 2 ALL), ≥140 mg BID, no prior menin inhibitor (13/22)) was 59.1% and the “CR + CRh (ELN 2017)” value [2, 6] was 5 (24%) n (%). For the same molecule, the “Composite CR (ELN 2017)” value [2, 6] was 7 (33%) n (%), the “Objective Response Rate (ELN 2017)” value [2, 6] was 12 (57%) n (%) and the “CR+CRh” value ([2]; MLLr or NPM1m, all dose levels 40-300 mg BID, prior menin inhibitor naïve, finished 1 cycle (6/38)) was 16%. For the same molecule, the ORR ([2]; MLLr or NPM1m, all dose levels 40-300 mg BID, prior menin inhibitor naïve, finished 1 cycle (12/38)) was 32%, the “CR+CRh rate” value ([2]; MLLr or NPM1m, ≥140 mg BID, prior menin inhibitor naïve, finished 1 cycle (5/22)) was 23% and the “ORR (CR+CRi+MLFS)” value ([2]; MLLr or NPM1m, ≥140 mg BID, prior menin inhibitor naïve, finished 1 cycle (10/22)) was 45%. For the same molecule, the “CR+CRh” value ([2]; MLLr, ≥140 mg BID (2/12 patients)) was 17%, the “Objective Response Rate (ORR; CR+CRh+CRi+MLFS)” value ([2]; MLLr, ≥140 mg BID (8/12 patients)) was 67% and the “CR + CRh (ELN 2017)” value ([2]; MLLr, ≥140 mg BID, n=12) was 2 (17%) n (%). For the same molecule, the “Composite CR (ELN 2017)” value ([2]; MLLr, ≥140 mg BID, n=12) was 5 (42%) n (%), the “Objective Response Rate (ELN 2017)” value ([2]; MLLr, ≥140 mg BID, n=12) was 8 (67%) n (%) and the “CR+CRh” value ([2]; MLLr, ≥140 mg BID, no prior menin inhibitor (5/22)) was 22.7%. For the same molecule, the “CR+CRh” value ([2]; NPM1m AML, ≥140 mg BID, no prior menin inhibitor (3/13)) was 23.1%, the ORR ([2]; NPM1m AML, ≥140 mg BID, no prior menin inhibitor (7/13)) was 53.8% and the “CR+CRh” value ([2]; NPM1m, ≥140 mg BID (3/9 patients)) was 33%. The ORR ([2]; NPM1m, ≥140 mg BID (4/9 patients)) was 44%, the “CR + CRh (ELN 2017)” value ([2]; NPM1m, ≥140 mg BID, n=9) was 3 (33%) n (%) and the “Composite CR (ELN 2017)” value ([2]; NPM1m, ≥140 mg BID, n=9) was 3 (33%) n (%). The “Objective Response Rate (ELN 2017)” value ([2]; NPM1m, ≥140 mg BID, n=9) was 4 (44%) n (%), the “response achieved (ELN 2017)” value ([2]; a patient with MLLr, 120 mg BID Arm A) was “MLFS” and the “additional patients with MLLr with response per ELN2017 (CRh/CRi and MLFS)” value ([2]; lower dose levels) was “Two”. For the same molecule, the “median time to CR+CRh” value ([2]; overall, ≥140 mg BID) was 1.0 months, the “median time to objective response” value ([2]; overall, ≥140 mg BID) was 1.0 months and the “Bone marrow blast reduction” value ([2]; patients with MLLr or NPM1m (FIG. 8)) was “observed”.
